In patent US20050059615A1, “Transmucosal dosage forms for brain-targeted steroid chemical delivery systems” (priority 2003, published 2005):

Legend:
LH [1] = experiment: Plasma LH in ovariectomized female rats (radioimmunoassay); assay type: in vivo, Sprague Dawley rats
Procedure: After recovery from surgery, ovariectomized female rats were divided into four groups and treated once a day for five days intravenously, via a bolus injection through the tail vein, as follows: (1) control, 27% HPβCD solution; (2) 0.003 mg/kg E2-CDS dissolved in 27% HPβCD solution; (3) 0.01 mg/kg E2-CDS dissolved in 27% HPβCD solution; and (4) 0.03 mg/kg E2-CDS dissolved in 27% HPβCD solution. A minimal number of ovariectomized (8 to 12) females were used per group. Intravenous treatments either with E2-CDS or HPβCD (controls) were carried out daily for 5 days beginning 2 days prior to the first day of behavior observations, in a volume of 0.05 mL/100 g body weight.
An experienced and active male rat was placed in the arena 5 minutes prior to the female. […] The lordosis quotient (LQ) expresses the estrogen effect on sexual receptivity and was calculated as follows: LQ=100×number of lordoses/10 mounts The observation of the sexual behavior of each female was carried out, in the case of E2-CDS, every day for 22 days; in the case of EB, investigations were carried out every day for 10 days. […] Citrated blood samples were taken by retro-orbital sinus puncture under light ether anesthesia. The samples were stored at 4EC for one hour, then centrifuged at 1000 g for 10 minutes. Plasma was separated and stored at −80EC until assayed. Plasma LH concentrations from individual samples were measured by double antibody radioimmunoassay kits obtained from Amersham Pharmacia Biotech, Rome, Italy. […] The limit of detection was 15 pg/mL.
(§1) Behavioral changes were analyzed using the Mann-Whitney U test (Siegel, Nonparametric Statistics for the Behavioral Sciences, New York; McGraw-Hill Book Company, Inc., 1956). The Fisher exact test was used for percentage comparisons (Zar, Biostatistical Analysis, Prentice Hall, Inc., Englewood Cliffs, N.J., 1974). Serum LH data were analyzed for each time and treatment group by analysis of variance (ANOVA) followed by Bonferroni posthoc test.

[2] = Phase I clinical study: serum estradiol (E2) levels; assay type: in vivo, postmenopausal women; settings: 2.86 mg buccal, repeated dosing, both groups
Text: (§2) A brief evaluation of the results follows:

LH [3] = experiment: Phase I clinical study: LH suppression; assay type: in vivo, postmenopausal women
Procedure: (§5) Even more recently, in a Phase I clinical study of postmenopausal women, two different administration regimens of a 2.86 mg E2-CDS buccal delivery tablet were evaluated for safety and effects on hormone levels. The subjects were 12 healthy postmenopausal volunteers, divided into two groups of six. In Group A, women were dosed once daily for 10 days (10 doses); in Group B, women were dosed once every other day for 13 days (7 doses).

FSH [4] = experiment: Phase I clinical study: FSH suppression; assay type: in vivo, postmenopausal women; settings: for suppression in FSH levels: first 24 hours post-dose, 2.86 mg buccal
Text: as §2

[5] = tested on: SHBG (Sex Hormone-binding Globulin); experiment: Phase I clinical study: SHBG; assay type: in vivo, postmenopausal women
Text: as §2

testosterone = experiment: Phase I clinical study: serum testosterone; assay type: in vivo, postmenopausal women; settings: for testosterone levels exceeding baseline values: 72 hours after the last dose
Text: as §2

[6] = Phase I clinical study: safety and tolerance; assay type: in vivo, postmenopausal women; settings: 2.86 mg buccal, 12 subjects, both regimens
Text: as §2

FSH [7] = experiment: Earlier clinical trial, single 2.5 mg buccal E2-CDS: FSH suppression; assay type: in vivo, postmenopausal women; settings: first 24 hour post-dose, 2.5 mg E2-CDS
Text: as §2

LH [8] = experiment: Plasma LH in orchidectomized male rats (radioimmunoassay); assay type: in vivo, Sprague Dawley rats
Procedure: (§3) Four weeks following orchidectomy, groups of rats were treated with one of the following drug doses via tail vein injection: E2-CDS 0.03, 0.3, and 3 mg/kg. Blood samples were collected by orbital sinus puncture under light ether anesthesia. The samples were stored at 4EC for one hour and centrifuged at 1,000 g for 10 minutes. Plasma was separated and stored at −80EC until assayed. Plasma LH concentrations from individual samples were measured by double antibody radioimmunoassay kits obtained from Amersham Pharmacia Biotech, Rome, Italy. […] The limit of detection was 15 pg/mL.
as §1
(§4) The testing described above was repeated using a dose of 0.03 mg/kg administered as a single i.v. injection, and a dose of 0.01 mg/kg with daily i.v. administration for 10 days. E2-CDS stock solution (40%) was diluted in 27% HPβCD solution.

[9] = Plasma estradiol in orchidectomized male rats (radioimmunoassay); assay type: in vivo, Sprague Dawley rats; settings: limit of detection 15 pg/mL
Procedure: as §3, §1, §4

castrated male rats = settings: single intravenous dose of 3 mg/kg; cited from earlier work
2OHE1/16OHE1 = experiment: Phase I clinical study: urinary estrone and 2OHE1/16OHE1
Procedure: as §5
Urine was collected for 24 hours on day 1 in both groups, and overnight (8 hours) on day 10 (Group A) and on day 13 (Group B), respectively, to determine the amounts of voided urinary estrone (E1), 2OHE1, 16OHE, and the ratios of 2OHE1 to 16OHE1.

[10] = 0.03 mg/kg single i.v., first study

With CN1C=CCC(C(=O)O[C@H]2CC[C@H]3[C@@H]4CCc5cc(O)ccc5[C@H]4CC[C@]23C)=C1 [E2-CDS, 17β-[(1-methyl-1,4-dihydro-3-pyridinyl)carbonyloxy]estra-1,3,5(10)-trien-3-ol] the “duration of plasma LH suppression” value (LH [1]; 0.003 mg/kg i.v. daily for 5 days) was “up to 15 days”, the “duration of statistically significant plasma LH suppression” value (LH [1]; 0.03 mg/kg i.v. daily for 5 days) was “up to 18 days” and the “effect on plasma LH levels” value (LH [1]; all dosage levels tested: 0.003, 0.01 and 0.03 mg/kg i.v. daily for 5 days) was “suppressed”. The “accumulation of trough E2 levels” value [2] was “no signs of accumulation”, the “post-study LH levels” value (LH [3]; 72 hours after the last dose) was “not different any more from screening/baseline values” and the “time of maximum LH depression” value (LH [3]; Group A) was 7.3±5.3 hours post-dose. For the same molecule, the “time of maximum LH depression” value (LH [3]; Group B) was 7.3±2.7 hours post-dose, the “maximum decrease in LH from baseline” value (LH [3]; first 24 hours, 2.86 mg buccal, Group A) was 13.8±4.9 mIU/mL and the “maximum decrease in LH from baseline” value (LH [3]; first 24 hours, 2.86 mg buccal, Group B) was 12.7±6.8 mIU/mL. The “decrease in LH levels from baseline” value (LH [3]; first 24 hours, 2.86 mg buccal, Groups A and B) was 35-40%, the “post-study FSH levels below screening/baseline values” (FSH [4]; 72 hours after the last dose) was 14-25% and the “time of maximum FSH suppression” value (FSH [4]; Group A) was 13.2±5.7 hours post-dose. For the same molecule, the “time of maximum FSH suppression” value (FSH [4]; Group B) was 11.8±5.8 hours post-dose, the “suppression in FSH levels” value (FSH [4]; Group A) was 15% and the “suppression in FSH levels” value (FSH [4]; Group B) was 16%. For the same molecule, the “SHBG concentration higher than at baseline on day 1” value ([5]; Group A, day 13) was 22.2%, the “SHBG concentration higher than at baseline on day 1” value ([5]; Group B, day 16) was 41.2% and the “testosterone levels exceeding baseline values” (testosterone; Group A) was 14%. The “testosterone levels exceeding baseline values” (testosterone; Group B) was 28%, the “mean testosterone AUC24 lower than baseline AUC24 (=C0*24)” value (testosterone; day 1, Group A) was 31.1% and the “minimum serum testosterone concentration” value (testosterone; day 1, Group A) was 1.3 ± 1.9 ng/dL. For the same molecule, the “time to reach minimum testosterone levels” value (testosterone; day 1, Group A) was 6.5 ± 11.7 h, the “mean testosterone AUC24 lower than baseline AUC24 (=C0*24)” value (testosterone; day 1, Group B) was 23.0% and the “minimum serum testosterone concentration” value (testosterone; day 1, Group B) was 4.0 ± 3.9 ng/dL. The “time to reach minimum testosterone levels” value (testosterone; day 1, Group B) was 7.3 ± 11.3 h, the “adverse events (AEs) in total” value [6] was “seven” and the “seriousness of adverse events” value [6] was “no serious AE was observed”. For the same molecule, the “extent of maximum FSH suppression” value (FSH [7]) was 12.5%, the “plasma LH level” value (LH [8]; 0.01 mg/kg, 10 daily i.v. injections, day 3 to day 14) was “significantly reduced” and the “plasma LH levels” value (LH [8]; [10]) was “not reduced”. The “plasma LH level” value (LH [8]; 0.03 mg/kg single injection, repeated examination, day 3 only) was “significantly reduced”, the “plasma LH levels” value (LH [8]; 0.3 mg/kg single i.v., days 1, 3 and 7) was “significantly reduced” and the “plasma LH levels” value (LH [8]; 3 mg/kg single i.v., throughout 28 days) was “suppressed significantly”. For the same molecule, the “estradiol levels after treatment” value ([9]; 0.01 mg/kg daily for 10 days i.v.) was “below the limit of detection”, the “estradiol levels after treatment” value ([9]; 0.03 mg/kg single dose i.v., repeated study) was “below the limit of detection” and the “estradiol levels after treatment” value [9, 10] was “below the limit of detection”. The “estradiol levels after treatment” value ([9]; 0.3 mg/kg single i.v., first study) was “below the limit of detection”, the “duration of improved masculine sexual behavior” value (castrated male rats) was 28 days and the “increase of the ratio of 2OHE1 to 16OHE1 during treatment” value (2OHE1/16OHE1; Group A) was 63.6%. For the same molecule, the “increase of the ratio of 2OHE1 to 16OHE1 during treatment” value (2OHE1/16OHE1; Group B) was 54.7%.
